# Data taken from US5814646A, “Inhibitors of amyloid beta-protein production” (Eli Lilly and Company, priority 1995, dated 1998).
# System: Aβ production in 293 751 SWE and CHO 751 SWE cells (transfected with APP-751 Swedish mutation)
# Experiment: Aβ production inhibition activity in cells (Aβ ELISA of conditioned media, normalized for cytotoxicity by MTT)
# Assay type: cell-based
# Conditions: 5 μg/ml
# How it was run: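 293 and CHO cells stably expressing APP-751 with the Swedish mutation were seeded in 96-well plates and grown overnight at 37° C. They were pretreated with compound for two hours, then given fresh compound-containing media for two more hours. Aβ in the conditioned media was quantified by sandwich ELISA (antibodies 266 and 6C6) and normalized to MTT viability versus drug-free control.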
row,SMILES,inhibition at 5 µg/mL [%]
1,CC(C)(C)c1ccc(Oc2cccc(C(Cc3ccccc3)N(O)C(=S)NCc3ccccc3)c2)cc1 (stereo not drawn) [Compound 33],16
2,CCCCCCNC(=S)N(O)Cc1ccc(-c2ccccc2)cc1 [Compound 78],24
3,CCCCCCNC(=S)N(O)Cc1ccc(OCc2ccc(CCCC)cc2)cc1 [Compound 63],9
4,CC(C)(C)c1ccc(COc2ccc(CN(O)C(=S)NCc3ccccc3)cc2)cc1 [Compound 52],22

# Same assay, conditions: 10 μg/ml, % of drug-free control, normalized to MTT
row,SMILES,inhibition at 10 µg/mL [%]
1,CN(Cc1cccc(Oc2ccc(C(C)(C)C)cc2)c1)C(=S)NCc1ccc(Cl)c(Cl)c1 [Compound 44],40
2,Cc1cccc(CNC(=S)N(O)Cc2ccc(OCc3c(Cl)cccc3Cl)cc2)c1 [Compound 65],7
3,CCCCCCC(c1cccc(Oc2ccc(C(C)(C)C)cc2)c1)N(O)C(=S)Nc1ccc(Cl)c(C(F)(F)F)c1 (stereo not drawn) [Compound 35],9
4,CC(C)(C)c1ccc(Oc2ccccc2NC(=S)NCc2ccc(Cl)c(Cl)c2)cc1 [Compound 183],24

# Same assay, conditions: 2 h pretreatment + 2 h incubation
row,SMILES,IC50 [µM]
1,S=C(Nc1ccc(Oc2ccccc2)cc1)Nc1ccc(Cl)c(Cl)c1 [Compound 148],7.5
2,CCCCCCNC(=S)N(O)Cc1cccc(NC(=O)c2ccc(C(C)(C)C)cc2)c1 [Compound 85],18.6
3,CC(C)(C)c1ccc(SCc2ccc(CN(O)C(=S)NCc3ccccc3)cc2)cc1 [Compound 94],13.1
4,FC(F)(F)c1cc(NC(=S)Nc2ccc(Cl)c(C(F)(F)F)c2)ccc1Cl [Compound 166],2.8
5,"CC(C)(C)c1nnc(NC(=O)Nc2ccc(Cl)c(Cl)c2)s1 [Compound 237, 1-(5-t-butyl-1,3,4-thiadiazol-2-yl)-3-(3,4-dichlorophenyl)urea]",2.9
6,CC(C)(C)c1ccc(Oc2ccc(NC(=S)NCc3ccc(F)cc3F)cc2)cc1 [Compound 128],7.3
7,"O=C(Nc1ccc(Cl)c(Cl)c1)Nc1nnc(Cl)s1 [Compound 232, 1-(5-chloro-1,3,4-thiadiazol-2-yl)-3-(3,4-dichlorophenyl)urea]",2
8,O=C(Nc1ccc(Cl)c(Cl)c1)Nc1ccccc1Cl [Compound 151],10.1
9,CC(C)(C)c1ccc(Oc2ccc(NC(=S)NCc3ccccc3Cl)cc2)cc1 [Compound 104],13.4
10,CC(c1cccc(Oc2ccc(C(C)(C)C)cc2)c1)N(O)C(=S)NCc1cccc(Cl)c1 (stereo not drawn) [Compound 16],12
11,CSc1ccc(NC(=O)Nc2cc(Cl)c(Cl)c(Cl)c2)cc1 [Compound 155],5.8
12,CC(C)(C)c1ccc(Oc2cccc(NC(=S)Nc3ccc(Cl)c(C(F)(F)F)c3)c2)cc1 [Compound 168],3.9
13,CC(c1cccc(Oc2ccc(C(C)(C)C)cc2)c1)N(O)C(=S)NCc1cccc(F)c1 (stereo not drawn) [Compound 18],18.3
14,CSc1ccc(NC(=O)Nc2ccc(Cl)c(Cl)c2)cc1Br [Compound 150],5.2
15,CC(C)(C)c1ccc(Oc2ccc(NC(=S)NCc3cccc(F)c3)cc2)cc1 [Compound 112],7.6
16,CC(C)(C)c1ccc(Oc2ccc(NC(=S)NCC3CCCNC3)cc2)cc1 (stereo not drawn) [Compound 127],11.7
17,"CC(C)(CCl)c1nnc(NC(=O)Nc2ccc(Cl)c(Cl)c2)s1 [Compound 238, 1-[5-(2-chloro-1,1-dimethylethyl)-1,3,4-thiadiazol-2-yl]-3-(3,4-dichlorophenyl)urea]",1.4
18,FC(F)(F)c1cc(NC(=S)Nc2ccc(Sc3ccccn3)cc2)ccc1Cl [Compound 223],8.3
19,CCCCCCNC(=S)N(O)Cc1cccc(Sc2ccc(C(C)(C)C)cc2)c1 [Compound 87],9.9
20,CCCC(c1cccc(Oc2ccc(C(C)(C)C)cc2)c1)N(O)C(=S)NCc1ccccc1 (stereo not drawn) [Compound 29],7.5
21,COc1cccc(CNC(=S)Nc2ccc(Oc3ccc(C(C)(C)C)cc3)cc2)c1 [Compound 110],21.2
22,CCCc1cc(C(C)(C)C)ccc1Oc1cccc(CN(O)C(=S)NCc2ccccc2)c1 [Compound 101],4.5
23,CC(C)(C)c1ccc(Oc2ccc(NC(=S)NCC3CCCCN3)cc2)cc1 (stereo not drawn) [Compound 126],7
24,CC(c1cccc(Oc2ccc(C(C)(C)C)cc2)c1)N(O)C(=S)NCc1ccccc1 (stereo not drawn) [Compound 1],11.2
25,CC(C)(C)c1ccc(Oc2ccc(NC(=S)NC3CCCCC3)cc2)cc1 [Compound 119],15.2
